Consider 19 substances from the OligoGym collection.

HELM strings list units from the 5' end as sugar, base in round brackets, then linkage (d deoxyribose, r ribose, m 2'-O-methyl, p phosphodiester). Strings are as the collection lists them, not checked against the first reports. ss, as = sense and antisense strand; [una] = unlocked nucleic acid; [s4r] = 4'-thioribose; [fl2r] = 2'-fluoro
Also: test system not given here.

For the data set the following is noted: siRNA.
Substance “RNA1{r(U)p.r(C)p.r(C)p.r(G)p.r(G)p.r(C)p.[fl2r](U)p.r(A)p.r(A)p.r(C)p.r(U)p.r(C)p.r(U)p.r(G)p.r(A)p.r(G)p.r(G)p.r(A)p.r(C)p.r(T)p.r(T)}|RNA2{r(G)p.r(U)p.r(C)p.r(C)p.r(U)p.r(C)p.r(A)p.r(G)p.r(A)p.r(G)p.r(U)p.[fl2r](U)p.r(A)p.r(G)p.r(C)p.r(C)p.r(G)p.r(G)p.r(A)p.r(T)p.r(T)}$$$RNA1{StrandType:ss}|RNA2{StrandType:as}$” registered a target mRNA knockdown of 82%.
The value for “RNA1{r(G)p.r(G)p.m(U)p.r(A)p.r(G)p.r(A)p.r(A)p.r(U)p.r(A)p.r(G)p.r(G)p.r(U)p.r(U)p.r(U)p.r(U)p.r(C)p.r(C)p.r(C)p.r(C)p.r(T)p.r(T)}|RNA2{r(G)p.r(G)p.r(G)p.r(G)p.r(A)p.r(A)p.r(A)p.r(A)p.r(C)p.r(C)p.m(U)p.r(A)p.r(U)p.r(U)p.r(C)p.r(U)p.r(A)p.r(C)p.r(C)p.r(T)p.r(T)}$$$RNA1{StrandType:ss}|RNA2{StrandType:as}$” was 82%; that for “RNA1{r(G)p.r(A)p.r(A)p.r(C)p.r(U)p.r(C)p.r(U)p.r(U)p.r(A)p.r(G)p.r(C)p.r(G)p.r(U)p.r(A)p.r(U)p.r(G)p.r(C)p.r(A)p.r(A)p.d(T)p.d(T)}|RNA2{r(U)p.r(U)p.r(G)p.r(C)p.r(A)p.r(U)p.r(A)p.r(C)p.r(G)p.r(C)p.r(U)p.r(A)p.r(A)p.r(G)p.r(A)p.r(G)p.r(U)p.r(U)p.r(C)p.d(T)p.d(T)}$$$RNA1{StrandType:ss}|RNA2{StrandType:as}$” was 56%; that for “RNA1{[s4r](C)p.[s4r](G)p.[s4r](U)p.[s4r](A)p.[s4r](C)p.[s4r](G)p.r(C)p.r(G)p.r(G)p.r(A)p.r(A)p.r(U)p.r(A)p.[s4r](C)p.[s4r](U)p.[s4r](U)p.[s4r](C)p.[s4r](G)p.[s4r](A)p.r(T)p.r(T)}|RNA2{[s4r](U)p.[s4r](C)p.r(G)p.r(A)p.r(A)p.r(G)p.r(U)p.r(A)p.r(U)p.r(U)p.r(C)p.r(C)p.r(G)p.r(C)p.r(G)p.r(U)p.r(A)p.[s4r](C)p.[s4r](G)p.r(T)p.r(T)}$$$RNA1{StrandType:ss}|RNA2{StrandType:as}$” was 28.6%.
The value for “RNA1{m(A)p.m(A)p.m(G)p.r(G)p.r(A)p.r(G)p.r(A)p.r(U)p.r(C)p.r(A)p.r(A)p.r(C)p.r(A)p.r(U)p.r(U)p.r(U)p.r(U)p.r(C)p.r(A)p.r(T)p.r(T)}|RNA2{m(U)p.m(G)p.m(A)p.r(A)p.r(A)p.r(A)p.r(U)p.r(G)p.r(U)p.r(U)p.r(G)p.r(A)p.r(U)p.r(C)p.r(U)p.r(C)p.r(C)p.r(U)p.r(U)p.r(T)p.r(T)}$$$RNA1{StrandType:ss}|RNA2{StrandType:as}$” was 60%; that for “RNA1{r(G)p.r(A)p.r(G)p.r(G)p.r(A)p.m(U)p.r(G)p.r(G)p.r(A)p.r(U)p.r(U)p.r(C)p.r(G)p.m(A)p.r(C)p.r(U)p.m(U)p.r(A)p.r(G)p.r(T)p.r(T)}|RNA2{r(C)p.m(U)p.r(A)p.r(A)p.m(G)p.r(U)p.r(C)p.r(G)p.r(A)p.r(A)p.r(U)p.r(C)p.m(C)p.r(A)p.r(U)p.r(C)p.r(C)p.r(U)p.r(C)p.r(T)p.r(T)}$$$RNA1{StrandType:ss}|RNA2{StrandType:as}$” was 91%; that for “RNA1{r(G)p.r(G)p.r(A)p.r(C)p.r(A)p.r(U)p.r(U)p.r(C)p.r(A)p.r(G)p.r(A)p.r(A)p.r(C)p.r(A)p.r(A)p.r(G)p.r(A)p.r(A)p.r(A)p.[una](U)p.[una](U)}|RNA2{r(U)p.r(U)p.r(U)p.r(C)p.r(U)p.[una](U)p.r(G)p.r(U)p.r(U)p.r(C)p.r(U)p.r(G)p.r(A)p.r(A)p.r(U)p.r(G)p.r(U)p.r(C)p.r(C)p.[una](U)p.[una](U)}$$$RNA1{StrandType:ss}|RNA2{StrandType:as}$” was 57%.
The value for “RNA1{[fl2r](U)p.r(C)p.[fl2r](C)p.r(G)p.[fl2r](G)p.r(C)p.[fl2r](U)p.r(A)p.[fl2r](A)p.r(C)p.[fl2r](U)p.r(C)p.[fl2r](U)p.r(G)p.[fl2r](A)p.r(G)p.[fl2r](G)p.r(A)p.[fl2r](C)p.r(T)p.r(T)}|RNA2{r(G)p.r(U)p.r(C)p.r(C)p.r(U)p.r(C)p.r(A)p.r(G)p.r(A)p.r(G)p.r(U)p.r(U)p.r(A)p.r(G)p.r(C)p.r(C)p.r(G)p.r(G)p.r(A)p.r(T)p.r(T)}$$$RNA1{StrandType:ss}|RNA2{StrandType:as}$” was 41%; that for “RNA1{r(G)p.r(G)p.r(G)p.r(A)p.r(A)p.r(A)p.r(C)p.r(U)p.r(G)p.r(A)p.r(A)p.r(A)p.r(G)p.r(G)p.r(C)p.[fl2r](U)p.r(A)p.r(U)p.r(G)p.r(T)p.r(T)}|RNA2{r(C)p.r(A)p.r(U)p.r(A)p.r(G)p.r(C)p.r(C)p.r(U)p.r(U)p.r(U)p.r(C)p.r(A)p.r(G)p.r(U)p.r(U)p.r(U)p.r(C)p.r(C)p.r(C)p.r(T)p.r(T)}$$$RNA1{StrandType:ss}|RNA2{StrandType:as}$” was 50%.
“RNA1{r(C)p.r(G)p.r(U)p.r(A)p.r(C)p.r(G)p.r(C)p.r(G)p.r(G)p.r(A)p.r(A)p.r(U)p.r(A)p.r(C)p.r(U)p.r(U)p.r(C)p.r(G)p.r(A)p.r(T)p.r(T)}|RNA2{r(U)p.[s4r](C)p.r(G)p.r(A)p.r(A)p.r(G)p.r(U)p.r(A)p.r(U)p.r(U)p.[s4r](C)p.[s4r](C)p.r(G)p.[s4r](C)p.r(G)p.r(U)p.r(A)p.[s4r](C)p.r(G)p.r(T)p.r(T)}$$$RNA1{StrandType:ss}|RNA2{StrandType:as}$” had a target mRNA knockdown of 68.5%.
The value for “RNA1{r(C)p.[fl2r](U)p.r(G)p.r(A)p.r(C)p.r(C)p.r(G)p.r(G)p.r(A)p.r(A)p.[fl2r](G)p.r(C)p.r(G)p.r(C)p.r(U)p.[fl2r](U)p.r(A)p.r(A)p.r(A)p.r(T)p.r(T)}|RNA2{r(U)p.r(U)p.[fl2r](U)p.r(A)p.r(A)p.r(G)p.r(C)p.r(G)p.r(C)p.r(U)p.r(U)p.r(C)p.r(C)p.r(G)p.r(G)p.r(U)p.[fl2r](C)p.r(A)p.r(G)p.r(T)p.r(T)}$$$RNA1{StrandType:ss}|RNA2{StrandType:as}$” was 85%; that for “RNA1{[fl2r](G)p.r(G)p.[fl2r](A)p.r(A)p.[fl2r](G)p.r(A)p.[fl2r](A)p.r(G)p.[fl2r](A)p.r(U)p.[fl2r](A)p.r(G)p.[fl2r](A)p.r(G)p.[fl2r](C)p.r(A)p.[fl2r](U)p.r(C)p.[fl2r](C)p.r(T)p.r(T)}|RNA2{r(G)p.r(G)p.r(A)p.[fl2r](U)p.r(G)p.r(C)p.r(U)p.r(C)p.[fl2r](U)p.r(A)p.r(U)p.r(C)p.r(U)p.r(U)p.r(C)p.r(U)p.r(U)p.r(C)p.r(C)p.r(T)p.r(T)}$$$RNA1{StrandType:ss}|RNA2{StrandType:as}$” was 13%.
The value for “RNA1{r(C)p.r(C)p.r(G)p.r(A)p.r(A)p.r(G)p.r(A)p.r(C)p.r(G)p.r(A)p.r(A)p.r(G)p.r(C)p.m(U)p.r(A)p.r(U)p.r(G)p.r(A)p.r(A)p.r(T)p.r(T)}|RNA2{r(U)p.r(U)p.m(C)p.r(A)p.r(U)p.r(A)p.r(G)p.r(C)p.r(U)p.r(U)p.r(C)p.r(G)p.r(U)p.r(C)p.r(U)p.r(U)p.r(C)p.r(G)p.r(G)p.r(T)p.r(T)}$$$RNA1{StrandType:ss}|RNA2{StrandType:as}$” was 71%; that for “RNA1{r(G)p.m(U)p.r(A)p.r(C)p.r(U)p.r(C)p.m(U)p.r(G)p.r(A)p.m(U)p.r(G)p.r(A)p.r(G)p.r(G)p.r(A)p.r(A)p.r(G)p.r(A)p.r(G)p.r(T)p.r(T)}|RNA2{r(C)p.r(U)p.r(C)p.r(U)p.r(U)p.r(C)p.r(C)p.r(U)p.m(C)p.r(A)p.r(U)p.m(C)p.r(A)p.r(G)p.r(A)p.r(G)p.r(U)p.m(A)p.r(C)p.r(T)p.r(T)}$$$RNA1{StrandType:ss}|RNA2{StrandType:as}$” was 68%.
The value for “RNA1{r(G)p.r(C)p.r(U)p.r(U)p.r(U)p.r(A)p.r(A)p.r(G)p.r(G)p.r(A)p.r(A)p.r(C)p.r(U)p.r(G)p.r(G)p.r(A)p.r(A)p.r(G)p.r(G)p.r(T)p.r(T)}|RNA2{r(C)p.r(C)p.r(U)p.r(U)p.r(C)p.r(C)p.r(A)p.r(G)p.r(U)p.r(U)p.r(C)p.r(C)p.r(U)p.m(U)p.r(A)p.r(A)p.r(A)p.r(G)p.r(C)p.r(T)p.r(T)}$$$RNA1{StrandType:ss}|RNA2{StrandType:as}$” was 37%; that for “RNA1{r(G)p.r(G)p.r(A)p.r(A)p.m(G)p.r(U)p.r(A)p.r(A)p.r(G)p.r(G)p.r(A)p.r(C)p.r(C)p.r(A)p.r(G)p.r(A)p.r(G)p.r(A)p.r(C)p.r(T)p.r(T)}|RNA2{r(G)p.r(U)p.r(C)p.r(U)p.r(C)p.r(U)p.r(G)p.r(G)p.r(U)p.r(C)p.r(C)p.r(U)p.m(U)p.r(A)p.r(C)p.r(U)p.r(U)p.r(C)p.r(C)p.r(T)p.r(T)}$$$RNA1{StrandType:ss}|RNA2{StrandType:as}$” was 44%.
In turn, “RNA1{r(G)p.r(G)p.r(A)p.r(A)p.r(G)p.r(U)p.r(C)p.m(C)p.m(A)p.r(C)p.r(C)p.m(U)p.m(U)p.r(C)p.r(U)p.r(C)p.r(C)p.r(G)p.r(A)p.r(T)p.r(T)}|RNA2{r(U)p.r(C)p.r(G)p.r(G)p.r(A)p.r(G)p.r(A)p.r(A)p.r(G)p.r(G)p.m(U)p.r(G)p.r(G)p.r(A)p.r(C)p.r(U)p.r(U)p.r(C)p.r(C)p.r(T)p.r(T)}$$$RNA1{StrandType:ss}|RNA2{StrandType:as}$” came in with a target mRNA knockdown of 51%.
The value for “RNA1{r(C)p.r(G)p.r(U)p.r(A)p.r(C)p.r(G)p.r(C)p.r(G)p.r(G)p.r(A)p.r(A)p.r(U)p.r(A)p.r(C)p.r(U)p.r(U)p.r(C)p.r(G)p.r(A)p.r(T)p.r(T)}|RNA2{[s4r](U)p.[s4r](C)p.r(G)p.r(A)p.r(A)p.r(G)p.r(U)p.r(A)p.r(U)p.r(U)p.r(C)p.r(C)p.r(G)p.r(C)p.r(G)p.r(U)p.r(A)p.r(C)p.r(G)p.r(T)p.r(T)}$$$RNA1{StrandType:ss}|RNA2{StrandType:as}$” was 95%; that for “RNA1{m(C)p.r(U)p.m(C)p.r(A)p.m(A)p.r(A)p.m(U)p.r(C)p.m(A)p.r(A)p.m(G)p.r(G)p.m(C)p.r(C)p.m(G)p.r(G)p.m(A)p.r(G)p.m(U)p.r(T)p.r(T)}|RNA2{r(A)p.r(C)p.r(U)p.r(C)p.r(C)p.m(G)p.m(G)p.r(C)p.r(C)p.r(U)p.r(U)p.m(G)p.r(A)p.r(U)p.r(U)p.r(U)p.m(G)p.r(A)p.m(G)p.r(T)p.r(T)}$$$RNA1{StrandType:ss}|RNA2{StrandType:as}$” was 36%.
